Measurements: EP4015040A1, “METHOD FOR TREATING BLOOD DISEASES” (Fundación para la Formación e Investigación Sanitarias de …, priority 2020, dated 2022)

Biological target: T1, telomerase (Danio rerio, UniProt A2THE9)
T1 sequence (A2THE9 1-1098): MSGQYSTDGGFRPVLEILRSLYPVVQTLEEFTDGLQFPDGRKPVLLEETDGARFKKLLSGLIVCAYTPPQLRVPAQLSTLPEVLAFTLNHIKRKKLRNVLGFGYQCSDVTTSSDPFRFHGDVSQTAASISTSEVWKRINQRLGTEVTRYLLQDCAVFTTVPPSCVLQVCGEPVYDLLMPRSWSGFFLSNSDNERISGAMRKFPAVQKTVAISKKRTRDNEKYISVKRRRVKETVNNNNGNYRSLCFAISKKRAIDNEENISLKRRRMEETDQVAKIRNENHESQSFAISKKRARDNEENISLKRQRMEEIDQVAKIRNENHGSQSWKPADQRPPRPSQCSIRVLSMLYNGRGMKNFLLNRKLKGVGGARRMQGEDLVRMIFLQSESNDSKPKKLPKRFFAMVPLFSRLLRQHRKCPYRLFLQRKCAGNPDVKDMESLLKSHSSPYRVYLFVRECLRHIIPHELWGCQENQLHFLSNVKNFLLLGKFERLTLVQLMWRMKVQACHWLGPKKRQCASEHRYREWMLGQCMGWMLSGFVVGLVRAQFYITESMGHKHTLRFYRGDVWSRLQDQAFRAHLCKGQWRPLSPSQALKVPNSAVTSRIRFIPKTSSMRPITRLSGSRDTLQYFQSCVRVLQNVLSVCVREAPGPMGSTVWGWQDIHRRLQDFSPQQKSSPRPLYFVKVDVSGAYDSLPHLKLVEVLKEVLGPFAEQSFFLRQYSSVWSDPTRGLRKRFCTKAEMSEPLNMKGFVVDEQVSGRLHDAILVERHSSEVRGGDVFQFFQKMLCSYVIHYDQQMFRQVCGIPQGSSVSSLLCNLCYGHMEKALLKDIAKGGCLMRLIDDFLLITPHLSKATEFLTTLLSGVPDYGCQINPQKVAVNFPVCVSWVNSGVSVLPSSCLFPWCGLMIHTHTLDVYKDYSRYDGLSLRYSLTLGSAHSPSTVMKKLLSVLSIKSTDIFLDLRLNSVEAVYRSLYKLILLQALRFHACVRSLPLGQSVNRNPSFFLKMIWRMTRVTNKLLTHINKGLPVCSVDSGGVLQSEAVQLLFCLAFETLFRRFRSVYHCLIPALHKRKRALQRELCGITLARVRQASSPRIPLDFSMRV
Experiment: Telomerase activity assay (Q-TRAP) in protein extracts of microinjected larvae
Assay type: in vivo
Details: zebrafish; 20 µM microinjected, larvae collected at 48 hpf; read-out: reduction of telomerase activity

In the case of `C/C(=C\C(=O)Nc1ccccc1C(=O)O)c1ccc2ccccc2c1` [BIBR1532], the inhibition at 20 µM is reported as > 50%.
